Test results as given in patent publication US20240366624A1, “METHODS AND COMPOSITIONS FOR TREATING THROMBOTIC DISEASE” (Washington University, priority 2023, published 2024).
Entries after “also recorded” stand apart in the source; their conditions may differ.

System: WT (C57BL/6) mice
Test: Transient middle cerebral artery occlusion (tMCAO) ischemic stroke model
Assay type: in vivo, mouse
Details: single iv 5 μg/g BW after tMCAO, 23 hours later
Method: FIG. 19(A-Q) is an exemplary embodiment of B12-5 having an antithrombotic effect without prolonging tail bleeding times in mice in accordance with the present disclosure. FIG. 19(A-C): Ex vivo effects of B12-5. Wild type (WT; C57BL/6) mice were treated with intravenous injection of vehicle (20% polyethylene glycol [PEG]+3% dimethyl sulfoxide [DMSO]) or B12-5 (5 μg/g body weight [BW]). One hour later, blood was drawn, followed by isolating platelets. P-selectin exposure (FIG. 19A) and αIIbβ3 integrin activation (FIG. 19B) were assessed in flow cytometry. FIG. 19C: Platelet aggregation was measured after treatment with 0.025 U/mL thrombin. The data represent the mean±SD (n=4). FIG. 19D: The plasma levels of B12-5 were analyzed by liquid chromatography-tandem mass spectrometry (LC-MS/MS) after intravenous injection of the compound (5 μg/g BW) into WT mice and quantified by comparison with a standard curve of B12-5 (mean±SD, n=3). FIG. 19E and FIG. 19F: After laser-induced cremaster arteriolar injury, intravital microscopy was conducted with WT mice pretreated with intravenous injection of saline, eptifibatide (5 μg/g BW), vehicle, or B12-5 (5 μg/g BW). The median integrated fluorescence intensities of anti-CD42c (F platelet) and anti-fibrin (F fibrin) antibodies (n=37-42 arterioles in 6 mice per group). Quantification of the antibody signal at a different time point after laser injury. FIG. 19G: Comparison of B12-5 (5 μg/g BW) with eptifibatide (5 μg/g BW) and their respective controls in inhibiting FeCl3-induced carotid artery thrombosis in WT mice. FIG. 19H and FIG. 19I: WT mice were treated with intravenous injection of vehicle control, eptifibatide (5 μg/g BW), or B12-5 (5 μg/g BW). Thirty minutes later, tail bleeding times and Hb contents were measured after amputation of the tail tip. Bars represent the median value (FIG. 19(E-1)). FIG. 19J and FIG. 19M: WT control and Ero1α conditional knockout (CKO) and knockout (KO) mice were subjected to transient middle cerebral artery occlusion (tMCAO). Twenty-three hours later, neurological deficits were assessed by the Bederson score and grip test, and infarct volume was measured as described in Methods. FIG. 19N through FIG. 19Q: WT mice were subjected to tMCAO and then treated with saline, vehicle, or B12-5 (5 μg/g BW). Twenty-three hours later, the neurological deficit and infarct volume were measured as described above. FIG. 19K and FIG. 19O: The data represent the mean±SD (n=7-8). FIG. 19L, FIG. 19M, FIG. 19P, and FIG. 19Q: The bar indicates the median with interquartile range. P values determined by unpaired Student t test (FIG. 19(A-C), FIG. 19K, and FIG. 19O) or Mann-Whitney U test (FIG. 19(E-1), FIG. 19L, FIG. 19M, FIG. 19P, and FIG. 19Q). […]

SMILES: O=C(CSc1nc(O)cc(O)n1)N1c2ccccc2Sc2ccccc21 [B12-5]
- infarct volume: significantly reduced
- neurological deficits (Bederson score, grip test): ameliorated
- infarct volume (listed as B112-5): significantly reduces; also recorded: reduced
- neurological deficits (Bederson score, grip test) (listed as B112-5): improves
